Structures can show the parent of a compound that is named as a salt. Where two headings read alike, the source gives them in different places.
Columns and labels:
[1] = test system: peroxynitrite (PN); experiment: Chemical-based assays of peroxynitrite (PN) oxidation; type: biochemical
Description: In cell-based assays of PN-mediated cytotoxicity, Compound 1 is protective. […] Chemically, Compound 1 can also react stoichiometrically with peroxynitrite to form a para-nitro adduct. Without being bound by theory, by targeting and removing peroxynitrite and peroxide, Compound 1 can disrupt the ensuing cascades that lead to hypersensitivity (protein modification, ion channel hyperexcitation) thus providing a long duration event in terms of pain relief.

[2] = Rat 28-day GLP repeat dose PO study (toxicokinetics); type: in vivo
Description: The vehicle was 0.5% HPMC. There were 15 rats/sex in the control and high dose groups (5/sex for a 14-day recovery period) while the low and mid doses consisted of 10 rats/sex. Satellite groups of rats/sex/group for toxicokinetics were included.
Rats in Group 1 (Vehicle Control) were bled once at approximately 1 hour post-dose on those days.

[3] = female, rat, in vivo, po, 50 mg/kg, Day 1, F, 50 mg/kg PO
[4] = female, rat, in vivo, po, 500 mg/kg, Day 14, F, 500 mg/kg PO
[5] = female, rat, in vivo, po, 500 mg/kg, Day 28, F, 500 mg/kg PO
[6] = female, rat, in vivo, po, 1000 mg/kg, Day 1, F, 1000 mg/kg PO
[7] = female, rat, in vivo, po, 1000 mg/kg, Day 14, F, 1000 mg/kg PO
[8] = female, rat, in vivo, po, 1000 mg/kg, Day 28, F, 1000 mg/kg PO
[9] = female, rat, in vivo, po, 2000 mg/kg, Day 1, F, 2000 mg/kg PO
[10] = female, rat, in vivo, po, 2000 mg/kg, Day 14, F, 2000 mg/kg PO
[11] = female, rat, in vivo, po, 2000 mg/kg, Day 28, F, 2000 mg/kg PO
[12] = male, rat, in vivo, po, 500 mg/kg, Day 1, M, 500 mg/kg PO
[13] = male, rat, in vivo, po, 500 mg/kg, Day 14, M, 500 mg/kg PO

CC1(C)SC(Nc2ccccc2O)=N[C@@H]1C(=O)O [Compound 1, (R)-2-(2-hydroxyphenylamino)-5,5-dimethyl-4,5-dihydrothiazole-4-carboxylic acid mono-hydrochloride]
PN-mediated oxidation of small-molecule organic substrates such as luminol [1]: inhibits PN-mediated oxidation
Cmax ([2]; 28-day pivotal rat study, at some doses): over 100 μg/mL
Tmax ([2]; 28-day study, rat): ≤ 1 h
overall mean t1/2 ([2]; all sexes, days, dose levels): 4.24 h
Tmax ([2]; both sexes, rat, in vivo, po): 0.5 to 2 h
half-life ([2]; both sexes, rat, in vivo, po): 3 to 8 h
Tmax ([2]; both sexes, rat, in vivo, po, Days 1, 14 and 28, 500 to 2000 mg/kg PO, read-out: median tmax): 1 h
Tmax ([2]; both sexes, rat, in vivo, po, Days 14 and 28, all dose levels and sexes, read-out: overall median tmax): 1 h
overall mean V/F ([2]; both, rat, in vivo): 12.5 L/kg
overall mean CL/F ([2]; both, rat, in vivo, po): 2.11 L/h/kg
AUC [2, 3]: 298 µg·h/mL
AUC(0-inf) [2, 3]: 299 µg·h/mL
CL/F ([2]; female, rat, in vivo, po, 50 mg/kg, Day 1, F, 50 mg/kg PO, read-out: CL/F (CLz/F) (converted)): 1.67 L/h/kg
Cmax ([2]; female, rat, in vivo, po, 50 mg/kg, Day 1, F, 50 mg/kg PO, read-out: Cmax): 74.8 µg/mL
Vd/F ([2]; female, rat, in vivo, po, 50 mg/kg, Day 1, F, 50 mg/kg PO, read-out: V/F (Vz/F)): 8.1 L/kg
half-life ([2]; female, rat, in vivo, po, 50 mg/kg, Day 1, F, 50 mg/kg PO, read-out: t1/2 (converted)): 3.36 h
AUC [2, 4]: 223 µg·h/mL
AUC(0-inf) [2, 4]: 225 µg·h/mL
CL/F ([2]; female, rat, in vivo, po, 500 mg/kg, Day 14, F, 500 mg/kg PO, read-out: CL/F (CLss/F) (converted)): 2.25 L/h/kg
Cmax ([2]; female, rat, in vivo, po, 500 mg/kg, Day 14, F, 500 mg/kg PO, read-out: Cmax): 75 µg/mL
Vd/F ([2]; female, rat, in vivo, po, 500 mg/kg, Day 14, F, 500 mg/kg PO, read-out: V/F (Vss/F)): 13.6 L/kg
half-life ([2]; female, rat, in vivo, po, 500 mg/kg, Day 14, F, 500 mg/kg PO, read-out: t1/2 (converted)): 4.2 h
Tmax ([2]; female, rat, in vivo, po, 500 mg/kg, Day 14, F, 500 mg/kg PO, read-out: tmax): 1 h
AUC [2, 5]: 297 µg·h/mL
AUC(0-inf) [2, 5]: 303 µg·h/mL
CL/F ([2]; female, rat, in vivo, po, 500 mg/kg, Day 28, F, 500 mg/kg PO, read-out: CL/F (CLss/F) (converted)): 1.68 L/h/kg
Cmax ([2]; female, rat, in vivo, po, 500 mg/kg, Day 28, F, 500 mg/kg PO, read-out: Cmax): 86.4 µg/mL
Vd/F ([2]; female, rat, in vivo, po, 500 mg/kg, Day 28, F, 500 mg/kg PO, read-out: V/F (Vss/F)): 11.2 L/kg
half-life ([2]; female, rat, in vivo, po, 500 mg/kg, Day 28, F, 500 mg/kg PO, read-out: t1/2 (converted)): 4.62 h
Tmax ([2]; female, rat, in vivo, po, 500 mg/kg, Day 28, F, 500 mg/kg PO, read-out: tmax): 0.5 h
AUC [2, 6]: 788 µg·h/mL
AUC(0-inf) [2, 6]: 794 µg·h/mL
CL/F ([2]; female, rat, in vivo, po, 1000 mg/kg, Day 1, F, 1000 mg/kg PO, read-out: CL/F (CLz/F) (converted)): 1.26 L/h/kg
Cmax ([2]; female, rat, in vivo, po, 1000 mg/kg, Day 1, F, 1000 mg/kg PO, read-out: Cmax): 108 µg/mL
Vd/F ([2]; female, rat, in vivo, po, 1000 mg/kg, Day 1, F, 1000 mg/kg PO, read-out: V/F (Vz/F)): 6.15 L/kg
half-life ([2]; female, rat, in vivo, po, 1000 mg/kg, Day 1, F, 1000 mg/kg PO, read-out: t1/2 (converted)): 3.39 h
AUC [2, 7]: 430 µg·h/mL
AUC(0-inf) [2, 7]: 437 µg·h/mL
CL/F ([2]; female, rat, in vivo, po, 1000 mg/kg, Day 14, F, 1000 mg/kg PO, read-out: CL/F (CLss/F) (converted)): 2.32 L/h/kg
Cmax ([2]; female, rat, in vivo, po, 1000 mg/kg, Day 14, F, 1000 mg/kg PO, read-out: Cmax): 96.3 µg/mL
Vd/F ([2]; female, rat, in vivo, po, 1000 mg/kg, Day 14, F, 1000 mg/kg PO, read-out: V/F (Vss/F)): 14 L/kg
half-life ([2]; female, rat, in vivo, po, 1000 mg/kg, Day 14, F, 1000 mg/kg PO, read-out: t1/2 (converted)): 4.19 h
AUC [2, 8]: 736 µg·h/mL
AUC(0-inf) [2, 8]: 741 µg·h/mL
CL/F ([2]; female, rat, in vivo, po, 1000 mg/kg, Day 28, F, 1000 mg/kg PO, read-out: CL/F (CLss/F) (converted)): 1.36 L/h/kg
Cmax ([2]; female, rat, in vivo, po, 1000 mg/kg, Day 28, F, 1000 mg/kg PO, read-out: Cmax): 128 µg/mL
Vd/F ([2]; female, rat, in vivo, po, 1000 mg/kg, Day 28, F, 1000 mg/kg PO, read-out: V/F (Vss/F)): 6.26 L/kg
half-life ([2]; female, rat, in vivo, po, 1000 mg/kg, Day 28, F, 1000 mg/kg PO, read-out: t1/2 (converted)): 3.2 h
Tmax ([2]; female, rat, in vivo, po, 1000 mg/kg, Day 28, F, 1000 mg/kg PO, read-out: tmax): 1 h
AUC [2, 9]: 1160 µg·h/mL
AUC(0-inf) [2, 9]: 1320 µg·h/mL
CL/F ([2]; female, rat, in vivo, po, 2000 mg/kg, Day 1, F, 2000 mg/kg PO, read-out: CL/F (CLz/F) (converted)): 1.51 L/h/kg
Cmax ([2]; female, rat, in vivo, po, 2000 mg/kg, Day 1, F, 2000 mg/kg PO, read-out: Cmax): 118 µg/mL
Vd/F ([2]; female, rat, in vivo, po, 2000 mg/kg, Day 1, F, 2000 mg/kg PO, read-out: V/F (Vz/F)): 17.6 L/kg
AUC [2, 10]: 942 µg·h/mL
AUC(0-inf) [2, 10]: 952 µg·h/mL
CL/F ([2]; female, rat, in vivo, po, 2000 mg/kg, Day 14, F, 2000 mg/kg PO, read-out: CL/F (CLss/F) (converted)): 2.12 L/h/kg
Cmax ([2]; female, rat, in vivo, po, 2000 mg/kg, Day 14, F, 2000 mg/kg PO, read-out: Cmax): 127 µg/mL
Vd/F ([2]; female, rat, in vivo, po, 2000 mg/kg, Day 14, F, 2000 mg/kg PO, read-out: V/F (Vss/F)): 10.9 L/kg
half-life ([2]; female, rat, in vivo, po, 2000 mg/kg, Day 14, F, 2000 mg/kg PO, read-out: t1/2 (converted)): 3.56 h
Tmax ([2]; female, rat, in vivo, po, 2000 mg/kg, Day 14, F, 2000 mg/kg PO, read-out: tmax): 1 h
AUC [2, 11]: 1300 µg·h/mL
AUC(0-inf) [2, 11]: 1330 µg·h/mL
CL/F ([2]; female, rat, in vivo, po, 2000 mg/kg, Day 28, F, 2000 mg/kg PO, read-out: CL/F (CLss/F) (converted)): 1.53 L/h/kg
Cmax ([2]; female, rat, in vivo, po, 2000 mg/kg, Day 28, F, 2000 mg/kg PO, read-out: Cmax): 139 µg/mL
Vd/F ([2]; female, rat, in vivo, po, 2000 mg/kg, Day 28, F, 2000 mg/kg PO, read-out: V/F (Vss/F)): 8.7 L/kg
half-life ([2]; female, rat, in vivo, po, 2000 mg/kg, Day 28, F, 2000 mg/kg PO, read-out: t1/2 (converted)): 3.93 h
Tmax ([2]; female, rat, in vivo, po, 2000 mg/kg, Day 28, F, 2000 mg/kg PO, read-out: tmax): 0.5 h
AUC [2, 12]: 270 µg·h/mL
AUC(0-inf) [2, 12]: 275 µg·h/mL
CL/F ([2]; male, rat, in vivo, po, 500 mg/kg, Day 1, M, 500 mg/kg PO, read-out: CL/F (CLz/F) (converted)): 1.82 L/h/kg
Cmax ([2]; male, rat, in vivo, po, 500 mg/kg, Day 1, M, 500 mg/kg PO, read-out: Cmax): 55.1 µg/mL
Vd/F ([2]; male, rat, in vivo, po, 500 mg/kg, Day 1, M, 500 mg/kg PO, read-out: V/F (Vz/F)): 11 L/kg
half-life ([2]; male, rat, in vivo, po, 500 mg/kg, Day 1, M, 500 mg/kg PO, read-out: t1/2 (converted)): 4.18 h
Tmax ([2]; male, rat, in vivo, po, 500 mg/kg, Day 1, M, 500 mg/kg PO, read-out: tmax): 1 h
AUC [2, 13]: 244 µg·h/mL
AUC(0-inf) [2, 13]: 258 µg·h/mL

Reference: US20200246316A1, “METHODS OF TREATING POST-SURGICAL PAIN WITH A THIAZOLINE ANTI-HYPERALGESIC AGENT” (CERSCI THERAPEUTICS, INC., priority 2019, published 2020)
